The results in this text go back to ChEMBL document CHEMBL5143637, “Design, synthesis and antibacterial activity against pathogenic mycobacteria of conjugated hydroxamic acids, hydrazides and O-alkyl/O-acyl protected hydroxamic derivatives” (Bioorg Med Chem Lett, 2022).

The assay relates to Mycobacterium tuberculosis variant bovis. Briefly: Antimycobacterial activity against Mycobacterium bovis BCG assessed as inhibition of bacterial growth incubated for 4 days by alamar blue assay. Format: functional. The note with it: 96 h, time 4 day. For orientation: Alamar Blue is a resazurin reagent that responds to reducing activity.

Each structure is given as a SMILES string. In brackets after ≈: the same amount, converted by molar mass.

What is called MIC is the least concentration at which growth counts as inhibited.

With `CCCC[C@H](CN(O)C=O)C(=O)N1CCC[C@H]1C(=O)Nc1ccccn1`, the MIC stood at 0.2 mg/L (≈ 0.552 µM).
